This is an account of results in patent publication US20250340564A1, “COMPOSITIONS USEFUL FOR MODULATING SPLICING” (SKYHAWK THERAPEUTICS, INC., priority 2021, published 2025).

Assay [1] concerns ATXN3 transcripts containing exon 4 (E4E5) in SK-N-MC cells. In words: ATXN3 Quantitative Splicing Assay (qPCR, E4E5 transcripts containing exon 4). In kind it is cell-based. As to conditions: Homo sapiens, 24 h treatment, qPCR primers/probe E4E5. On the procedure: Human neuroblastoma SK-N-MC cells were plated in 384-well plates at 20,000 cells/well. Twenty-four hours after plating, cells were treated with compounds for 24 h at appropriate concentrations ranging from 30 μM to 0.6 nM (0.3% DMSO). Treated cells were lysed in 15 μL of lysis buffer, and cDNA was synthesized using the Fast Advanced Cells-to-Ct kit. Two μL of each cDNA was used in qPCR reactions to confirm the exon 4 skipped transcripts of ATXN3. A second set of primers/probe E4E5 was used to detect the transcripts containing exon 4. The third set of primers/probe E8E9 was used to detect total gene level of ATXN3. The qPCR reactions were prepared in 384-well plates in 10 μL volume, using TaqMan™ Fast Advanced Master Mix with primers and probes shown in the table below. Reactions were run in a Quant Studio 6 qPCR instrument with default settings.
The primers and probes are listed below in Table 4.
(§1) Compounds were tested as outlined in Examples 2 and 3 above and the results are shown below in Table 5.
(In general: Real-time PCR tracks product formation cycle by cycle.)

Assay [2] deals with total ATXN3 protein levels in SK-N-MC cells. In words: ATXN3 Total Protein Assay (MSD). In kind it is cell-based. As to conditions: Homo sapiens, 48 hours incubation. On the procedure:
Human neuroblastoma SK-N-MC cells were seeded at 10,000 cells/well in 384 well plates one day prior to compound treatment. The concentrations of compounds were tested at appropriate doses ranging from 30 μM to 0.6 nM. After incubation for 48 hours, the cells were lysed with 25 μL of lysis buffer containing protease inhibitors, and total ATXN3 protein levels were assessed by Mesoscale Discovery (MSD) assay developed with one pair of anti-ATXN3 antibodies. The capture and detect antibodies were raised in mouse and rabbit respectively. Anti-rabbit MSD-ST antibody was used for secondary antibody.
ATXN3 recombinant protein was used for standards. The readouts were captured with 35 μL of MSD read buffer and multi-array 384-well high binding plates.
as §1

As to `Cc1c(C[C@H](C)N)sc2c(NCc3ccncc3)cnnc12` [Compound 1, 6-[(2S)-2-aminopropyl]-7-methyl-N-[(pyridin-4-yl)methyl]thieno[3,2-c]pyridazin-4-amine], the half-inhibitory concentration (IC50) in assay [1] and in assay [2] was 5 to 10 µM throughout.

Consider `Cc1c(C[C@@H](N)CO)sc2c(NCc3ccncc3)cnnc12` [Compound 3, (2R)-2-amino-3-(7-methyl-4-{[(pyridin-4-yl)methyl]amino}thieno[3,2-c]pyridazin-6-yl)propan-1-ol], for which the IC50 was in the range of 5 to 10 µM in assay [1] and 10 to 40 µM in assay [2].

As for `Cc1c(C[C@H](C)N)sc2c(NCc3ccncc3F)cnnc12` [Compound 4, 6-[(2S)-2-aminopropyl]-N-[(3-fluoropyridin-4-yl)methyl]-7-methylthieno[3,2-c]pyridazin-4-amine], the half-inhibitory concentration (IC50) in assay [1] fell in the range of 5 to 10 µM; in assay [2] it was 10 to 40 µM.

As for `Cc1c(C[C@@H](N)CO)sc2c(NCc3ccncc3F)cnnc12` [Compound 5, (2R)-2-amino-3-(4-{[(3-fluoropyridin-4-yl)methyl]amino}-7-methylthieno[3,2-c]pyridazin-6-yl)propan-1-ol], the half-maximal inhibitory concentration (IC50) fell in the range of 5 to 10 µM in assay [1] and 10 to 40 µM in assay [2].

As for `Cc1c(C[C@H](C)N)sc2c(NCc3ccccc3F)cnnc12` [Compound 6, 6-[(2S)-2-aminopropyl]-N-[(2-fluorophenyl)methyl]-7-methylthieno[3,2-c]pyridazin-4-amine], the results for the IC50 in assay [1] and in assay [2] were 0.501 to 5 µM and 5 to 10 µM, respectively.

On to `Cc1c(C[C@@H](N)CO)sc2c(NCc3ccccc3F)cnnc12` [Compound 7, (2R)-2-amino-3-(4-{[(2-fluorophenyl)methyl]amino}-7-methylthieno[3,2-c]pyridazin-6-yl)propan-1-ol], for which the IC50 in assay [1] and in assay [2] was 10 to 40 µM in each case.

`C[C@H](N)Cc1sc2c(NCc3ccncc3)cnnc2c1Cl` [Compound 8, 6-[(2S)-2-aminopropyl]-7-chloro-N-[(pyridin-4-yl)methyl]thieno[3,2-c]pyridazin-4-amine]: the IC50 in assay [1] and in assay [2] was 10 to 40 µM throughout.

With `CC[C@H](N)Cc1sc2c(NCc3ccncc3)cnnc2c1C` [Compound 10, 6-[(2S)-2-aminobutyl]-7-methyl-N-[(pyridin-4-yl)methyl]thieno[3,2-c]pyridazin-4-amine], the IC50 in assay [1] and in assay [2] was 10 to 40 µM in each case.

Turning to `Cc1c(C[C@@H](N)CCO)sc2c(NCc3ccncc3)cnnc12` [Compound 11, (3S)-3-amino-4-(7-methyl-4-{[(pyridin-4-yl)methyl]amino}thieno[3,2-c]pyridazin-6-yl)butan-1-ol], the IC50 in assay [1] and in assay [2] was 10 to 40 µM each time.

Turning to `C[C@H](N)Cc1sc2c(NCc3ccncc3)cnnc2c1Br` [Compound 20, 6-[(2S)-2-aminopropyl]-7-bromo-N-[(pyridin-4-yl)methyl]thieno[3,2-c]pyridazin-4-amine], the results for the concentration for half-maximal inhibition (IC50) in assay [1] and in assay [2] were 5 to 10 µM and 10 to 40 µM, respectively.

For the compound `Cc1c(C[C@H](C)N)sc2c(NCc3ccncn3)cnnc12` [Compound 22, 6-[(2S)-2-aminopropyl]-7-methyl-N-[(pyrimidin-4-yl)methyl]thieno[3,2-c]pyridazin-4-amine], the concentration for half-maximal inhibition (IC50) in assay [1] and in assay [2] was 10 to 40 µM each time.

For `Cc1c(C[C@@H](N)CO)sc2c(NCc3ccncn3)cnnc12` [Compound 23, (2R)-2-amino-3-(7-methyl-4-{[(pyrimidin-4-yl)methyl]amino}thieno[3,2-c]pyridazin-6-yl)propan-1-ol], the half-inhibitory concentration (IC50) in assay [1] and in assay [2] was 10 to 40 µM throughout.

With `c1cc(CNc2cnnc3ccsc23)ccn1` [Compound 33, N-[(pyridin-4-yl)methyl]thieno[3,2-c]pyridazin-4-amine], the half-maximal inhibitory concentration (IC50) in assay [1] and in assay [2] was 10 to 40 µM throughout.

Consider `Cc1csc2c(NCc3ccncn3)cnnc12` [Compound 34, 7-methyl-N-[(pyrimidin-4-yl)methyl]thieno[3,2-c]pyridazin-4-amine], for which the IC50 in assay [1] and in assay [2] was 10 to 40 µM in each case.

For `Cc1csc2c(NCc3ccncc3F)cnnc12` [Compound 35, N-[(3-fluoropyridin-4-yl)methyl]-7-methylthieno[3,2-c]pyridazin-4-amine], the 50% inhibitory concentration (IC50) in assay [1] and in assay [2] was 10 to 40 µM throughout.

As to `Cc1csc2c(NCc3ccccc3F)cnnc12` [Compound 36, N-[(2-fluorophenyl)methyl]-7-methylthieno[3,2-c]pyridazin-4-amine], the half-inhibitory concentration (IC50) in assay [1] and in assay [2] was 10 to 40 µM each time.

For `Cc1c(C[C@H](C)N)sc2c(NCc3ccccc3)cnnc12` [Compound 37, 6-[(2S)-2-aminopropyl]-N-benzyl-7-methylthieno[3,2-c]pyridazin-4-amine], the half-maximal inhibitory concentration (IC50) in assay [1] and in assay [2] was 0.501 to 5 µM throughout.

As to `Clc1csc2c(NCc3ccncc3)cnnc12` [Compound 38, 7-chloro-N-[(pyridin-4-yl)methyl]thieno[3,2-c]pyridazin-4-amine], the IC50 in assay [1] and in assay [2] was 10 to 40 µM in each case.

`Cc1c(C[C@@H](N)CO)sc2c(NCc3ccccc3)cnnc12` [Compound 39, (2R)-2-amino-3-[4-(benzylamino)-7-methylthieno[3,2-c]pyridazin-6-yl]propan-1-ol]: the IC50 in assay [1] and in assay [2] was 0.501 to 5 µM throughout.

On to `C[C@H](N)Cc1cc2nnc(Br)c(NCc3ccccc3)c2s1` [Compound 40, 6-[(2S)-2-aminopropyl]-N-benzyl-3-bromothieno[3,2-c]pyridazin-4-amine], for which the IC50 in assay [1] and in assay [2] was 10 to 40 µM in each case.

With `Brc1csc2c(NCc3ccncc3)cnnc12` [Compound 41, 7-bromo-N-[(pyridin-4-yl)methyl]thieno[3,2-c]pyridazin-4-amine], the IC50 in assay [1] lay within 0.101 to 0.5 µM; in assay [2] it was 10 to 40 µM.

For the compound `Cc1c(C[C@@H](N)CCO)sc2c(NCc3ccccc3)cnnc12` [Compound 42, (3S)-3-amino-4-[4-(benzylamino)-7-methylthieno[3,2-c]pyridazin-6-yl]butan-1-ol], the values for the concentration for half-maximal inhibition (IC50) in assay [1] and in assay [2] were 5 to 10 µM and 0.501 to 5 µM, respectively.

One may read the IC50 as the point on the concentration scale where inhibition reaches its midpoint. A higher IC50 goes with lower potency.
